These results are taken from US8173841B2, “Tetrahydro-naphthalene derivatives” (Xention Limited, priority 2003, dated 2012).

The target in one data set is T1, human VR1 (Homo sapiens, UniProt Q8NER1).
T1 construct: expressed in transfected cells
The experiment in a line: Capsaicin-induced Ca2+ influx in the human VR1-transfected CHO cell line (Assay 1). The data set is classed as cell-based. As to conditions: human VR1-CHOluc9aeq cells, stimulation with 10 nM capsaicin, Fluo-3 AM / FDSS-3000; compounds of purity about 40 to 90%; read-out: Activity Class (IC50 of capsaicin-induced Ca2+ influx). An excerpt: [Measurement of Capsaicin-Induced Ca^2+ Influx in the Human VR1-Transfected CHO Cell Line] (Assay 1)
(1) Establishment of the Human VR1-CHOluc9aeq Cell Line
Human vanilloid receptor (hVR1) cDNA was cloned from libraries of axotomized dorsal root ganglia (WO 00/29577). The cloned hVR1 cDNA was constructed with pcDNA3 vector and transfected into a CHOluc9aeq cell line. The cell line contains aequorin and CRE-luciferase reporter genes as read-out signals. The transfectants were cloned by limiting dilution in selection medium (DMEM/F12 medium (Gibco BRL) supplemented with 10% FCS, 1.4 mM Sodium pyruvate, 20 mM HEPES, 0.15% Sodium bicarbonate, 100 U/ml penicillin, 100 μg/ml streptomycin, 2 mM glutamine, non-essential amino acids and 2 mg/ml G418). Ca^2+ influx was examined in the capsaicin-stimulated clones. A high responder clone was selected and used for further experiments in the project. The human VR1-CHOluc9aeq cells were maintained in the selection medium and passaged every 3-4 days at 1−2.5×10^5 cells/flask ([…]).
(2) Measurement of Ca^2+ influx using FDSS-3000
Human VR1-CHOluc9aeq cells were suspended in a culture medium which is the same as the selection medium except for G418 and seeded at a density of 1,000 cells per well into 384-well plates (black walled clear-base/Nalge Nunc International). Following the culture for 48 hrs the medium was changed to 2 μM Fluo-3 AM (Molecular Probes) and 0.02% Puronic F-127 in assay buffer (Hank's balanced salt solution (HBSS), 17 mM HEPES (pH7.4), 1 mM Probenecid, 0.1% BSA) and the cells were incubated for 60 min at 25° C. After washing twice with assay buffer the cells were incubated with a test compound or vehicle for 20 min at 25° C. Mobilization of cytoplasmic Ca^2+ was measured by FDSS-3000 (λex=488 nm, λem=540 nm/Hamamatsu Photonics) for 60 sec after the stimulation with 10 nM capsaicin. Integral R was calculated and compared with controls.
The data corresponds to the compounds as yielded by solid phase synthesis and thus to levels of purity of about 40 to 90%. For practical reasons, the compounds are grouped in four classes of activity as follows: IC50=A (< or =) 0.1 μM<B (< or =) 0.5 μM<C (< or =) 1 μM<D

Each structure is given as a SMILES string.

T1 sequence (Q8NER1 whole entry): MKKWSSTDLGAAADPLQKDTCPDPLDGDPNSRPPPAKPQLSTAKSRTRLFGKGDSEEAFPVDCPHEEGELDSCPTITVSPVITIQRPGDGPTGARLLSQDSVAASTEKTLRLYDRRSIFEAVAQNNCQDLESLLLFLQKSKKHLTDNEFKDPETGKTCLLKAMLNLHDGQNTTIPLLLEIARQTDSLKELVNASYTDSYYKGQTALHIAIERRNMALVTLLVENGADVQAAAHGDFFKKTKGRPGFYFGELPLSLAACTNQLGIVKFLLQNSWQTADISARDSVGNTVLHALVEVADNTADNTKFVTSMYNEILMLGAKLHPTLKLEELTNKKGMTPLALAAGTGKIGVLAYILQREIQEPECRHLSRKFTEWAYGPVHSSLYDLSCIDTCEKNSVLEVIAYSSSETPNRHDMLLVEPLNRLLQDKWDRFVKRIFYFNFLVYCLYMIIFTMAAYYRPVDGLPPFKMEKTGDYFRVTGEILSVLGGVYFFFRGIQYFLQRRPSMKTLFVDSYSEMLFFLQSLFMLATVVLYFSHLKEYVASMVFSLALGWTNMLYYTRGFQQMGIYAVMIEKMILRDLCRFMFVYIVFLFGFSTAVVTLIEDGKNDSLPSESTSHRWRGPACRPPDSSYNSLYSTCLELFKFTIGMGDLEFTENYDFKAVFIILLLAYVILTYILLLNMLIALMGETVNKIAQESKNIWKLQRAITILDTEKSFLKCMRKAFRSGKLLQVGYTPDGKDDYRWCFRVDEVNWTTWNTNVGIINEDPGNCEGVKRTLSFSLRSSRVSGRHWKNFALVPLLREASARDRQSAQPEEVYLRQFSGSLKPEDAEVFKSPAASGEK

The term IC50 denotes the concentration that gives 50% inhibition. By melting point is commonly meant the temperature of the solid-liquid transition. In the case of `O=C(Nc1cccc(-c2cc(Cl)ccc2Cl)c1)Nc1cccc2c1CC(O)CC2` (stereo not drawn) [Example 1-22], the melting point came to 209 °C. Further, on human VR1, the IC50 is less than 0.1 µM.
For `O=C(Nc1cccc(-c2cccc(C(F)(F)F)c2)c1)Nc1cccc2c1CC(O)CC2` (stereo not drawn) [Example 1-23] the same measures were 210 °C and less than 0.1 µM.
As to `O=C(Nc1cccc(-c2cccc(OC(F)(F)F)c2)c1)Nc1cccc2c1CC(O)CC2` (stereo not drawn) [Example 1-24], the melting point was 195 °C. Further, the IC50 at human VR1 was less than 0.1 µM.
The compound `O=C(Nc1cccc(-c2ccc(OC(F)(F)F)cc2)c1)Nc1cccc2c1CC(O)CC2` (stereo not drawn) [Example 1-25] came in with a melting point of 210 °C. Moreover, the IC50 at human VR1 is less than 0.1 µM.
Compound `CN(C)c1ccc(-c2cccc(NC(=O)Nc3cccc4c3CC(O)CC4)c2)cc1` (stereo not drawn) [Example 1-26] came in with a melting point of 215 °C. In addition, at human VR1, the IC50 was less than 0.1 µM.
Take `CC(=O)c1ccc(-c2cccc(NC(=O)Nc3cccc4c3CC(O)CC4)c2)cc1` (stereo not drawn) [Example 1-27]: the melting point was found to be 216 °C. For the same compound, the IC50 at human VR1 is less than 0.1 µM.
As to `O=C(Nc1cccc(-c2cccc([N+](=O)[O-])c2)c1)Nc1cccc2c1CC(O)CC2` (stereo not drawn) [Example 1-28], the melting point came to 238 °C. Further, the IC50 at human VR1 is less than 0.1 µM.
Take `CN(C)c1ccc(-c2ccc(CNC(=O)Nc3cccc4c3CC(O)CC4)cc2)cc1` (stereo not drawn) [Example 1-30]: the melting point lay in the range of 205 to 206 °C. In addition, the IC50 at human VR1 was less than 0.1 µM.
As for `COc1ccc(-c2ccc(CNC(=O)Nc3cccc4c3CC(O)CC4)cc2)cc1` (stereo not drawn) [Example 1-31], the melting point fell in the range of 215 to 216 °C. In addition, the IC50 on human VR1 is less than 0.1 µM.
With `Cc1ccc(-c2ccc(CNC(=O)Nc3cccc4c3CC(O)CC4)cc2)cc1` (stereo not drawn) [Example 1-32], the melting point lay within 211 to 212 °C. For the same compound, the IC50 at human VR1 was less than 0.1 µM.
Turning to `O=C(NCc1ccc(-c2cccc(Cl)c2)cc1)Nc1cccc2c1CC(O)CC2` (stereo not drawn) [Example 1-33], the melting point lay within 195 to 196 °C. Besides, the concentration for half-maximal inhibition (IC50) on human VR1 was less than 0.1 µM.
The matching figures for `O=C(NCc1ccc(-c2cc(Cl)ccc2Cl)cc1)Nc1cccc2c1CC(O)CC2` (stereo not drawn) [Example 1-34]: 139 to 140 °C and less than 0.1 µM.
The compound `COc1ccccc1-c1ccc(CNC(=O)Nc2cccc3c2CC(O)CC3)cc1` (stereo not drawn) [Example 1-35] showed a melting point of 128 to 129 °C. Moreover, the IC50 at human VR1 is less than 0.1 µM.
In the case of `COc1ccc(OC)c(-c2ccc(CNC(=O)Nc3cccc4c3CC(O)CC4)cc2)c1` (stereo not drawn) [Example 1-36], the melting point lay within 113 to 114 °C. Besides, the IC50 on human VR1 is less than 0.1 µM.
Compound `Cc1ccc(C)c(-c2ccc(CNC(=O)Nc3cccc4c3CC(O)CC4)cc2)c1` (stereo not drawn) [Example 1-37] came in with a melting point of 181 to 182 °C. The IC50 at human VR1 is less than 0.1 µM.
For `O=C(NCc1ccc(-c2cccc(F)c2)cc1)Nc1cccc2c1CC(O)CC2` (stereo not drawn) [Example 1-38], the melting point lay within 191 to 192 °C. The IC50 on human VR1 is less than 0.1 µM.
The compound `O=C(NCc1ccc(-c2cccc(OC(F)(F)F)c2)cc1)Nc1cccc2c1CC(O)CC2` (stereo not drawn) [Example 1-39] displayed a melting point of 218 to 219 °C. Moreover, the IC50 on human VR1 was less than 0.1 µM.
`O=C(NCc1ccc(-c2ccc(Cl)cc2Cl)cc1)Nc1cccc2c1CC(O)CC2` (stereo not drawn) [Example 1-40]: the melting point was 177 to 178 °C. Also, at human VR1, the IC50 is less than 0.1 µM.
On to `O=C(NCc1ccc(-c2ccc(F)c(F)c2)cc1)Nc1cccc2c1CC(O)CC2` (stereo not drawn) [Example 1-41], for which the melting point was 191 to 192 °C. For the same compound, the IC50 at human VR1 is less than 0.1 µM.
With `O=C(NCc1ccc(-c2ccc(F)c(Cl)c2)cc1)Nc1cccc2c1CC(O)CC2` (stereo not drawn) [Example 1-42], the melting point was in the range of 205 to 206 °C. For the same compound, at human VR1, the IC50 is less than 0.1 µM.
For `O=C(NCc1ccc(-c2ccc(OC(F)(F)F)cc2)cc1)Nc1cccc2c1CC(O)CC2` (stereo not drawn) [Example 1-43] the same measures were 199 to 200 °C and less than 0.1 µM.
With `O=C(NCc1ccc(-c2cccc(C(F)(F)F)c2)cc1)Nc1cccc2c1CC(O)CC2` (stereo not drawn) [Example 1-44], the melting point was in the range of 196 to 197 °C. Moreover, the IC50 at human VR1 is less than 0.1 µM.
`O=C(NCc1ccc(-c2ccc(F)cc2)cc1)Nc1cccc2c1CC(O)CC2` (stereo not drawn) [Example 1-45] came in with a melting point of 201 to 202 °C. For the same compound, on human VR1, the IC50 is less than 0.1 µM.
For `CSc1ccc(-c2ccc(CNC(=O)Nc3cccc4c3CC(O)CC4)cc2)cc1` (stereo not drawn) [Example 1-46], the melting point lay in the range of 216 to 217 °C. In addition, the IC50 on human VR1 was less than 0.1 µM.
`COc1ccc(-c2ccc(CNC(=O)Nc3cccc4c3CC(O)CC4)cc2)cc1OC` (stereo not drawn) [Example 1-47] had a melting point of 205 to 206 °C. Further, the IC50 on human VR1 was in the range of 0.5 to 1 µM.
`O=C(NCc1ccc(-c2ccccc2F)cc1)Nc1cccc2c1CC(O)CC2` (stereo not drawn) [Example 1-48] yielded a melting point of 187 to 188 °C. In addition, the IC50 at human VR1 was less than 0.1 µM.
With `O=C(NCc1ccc(-c2ccc(F)cc2F)cc1)Nc1cccc2c1CC(O)CC2` (stereo not drawn) [Example 1-49], the melting point was 191 to 192 °C. Besides, on human VR1, the IC50 was less than 0.1 µM.
The compound `O=C(NCc1ccc(-c2c(F)cccc2F)cc1)Nc1cccc2c1CC(O)CC2` (stereo not drawn) [Example 1-50] yielded a melting point of 204 to 205 °C. The IC50 on human VR1 is less than 0.1 µM.
The compound `Cc1cc(C)cc(-c2ccc(CNC(=O)Nc3cccc4c3CC(O)CC4)cc2)c1` (stereo not drawn) [Example 1-51] yielded a melting point of 205 to 206 °C. Besides, the 50% inhibitory concentration (IC50) at human VR1 is less than 0.1 µM.
`CC(C)c1ccc(-c2ccc(CNC(=O)Nc3cccc4c3CC(O)CC4)cc2)cc1` (stereo not drawn) [Example 1-52] showed a melting point of 202 to 203 °C. Besides, the IC50 at human VR1 is less than 0.1 µM.
In turn, `O=C(NCc1ccc(-c2cc(Cl)cc(Cl)c2)cc1)Nc1cccc2c1CC(O)CC2` (stereo not drawn) [Example 1-53] displayed a melting point of 204 to 205 °C. The IC50 at human VR1 was less than 0.1 µM.
`O=C(NCc1ccc(-c2cccc([N+](=O)[O-])c2)cc1)Nc1cccc2c1CC(O)CC2` (stereo not drawn) [Example 1-54] came in with a melting point of 206 to 207 °C. Also, on human VR1, the IC50 was less than 0.1 µM.
`O=C(NCc1cccc(-c2ccc(F)cc2)c1)Nc1cccc2c1CC(O)CC2` (stereo not drawn) [Example 1-55] had a melting point of 194 to 195 °C. For the same compound, the IC50 at human VR1 was less than 0.1 µM.
`O=C(NCc1cccc(-c2cccc(OC(F)(F)F)c2)c1)Nc1cccc2c1CC(O)CC2` (stereo not drawn) [Example 1-56] gave a melting point of 175 to 176 °C. Besides, the IC50 at human VR1 was less than 0.1 µM.
`CN(C)c1ccc(-c2cccc(CNC(=O)Nc3cccc4c3CC(O)CC4)c2)cc1` (stereo not drawn) [Example 1-57] came in with a melting point of 207 to 208 °C. Besides, the IC50 on human VR1 is less than 0.1 µM.
Consider `O=C(NCc1cccc(-c2ccc(OC(F)(F)F)cc2)c1)Nc1cccc2c1CC(O)CC2` (stereo not drawn) [Example 1-58], for which the melting point is 188 to 189 °C. Besides, the IC50 on human VR1 was less than 0.1 µM.
For `O=C(NCc1cccc(-c2cc(C(F)(F)F)cc(C(F)(F)F)c2)c1)Nc1cccc2c1CC(O)CC2` (stereo not drawn) [Example 1-59] the same measures were 208 to 209 °C and less than 0.1 µM.
The matching figures for `COc1ccc(OC)c(-c2cccc(CNC(=O)Nc3cccc4c3CC(O)CC4)c2)c1` (stereo not drawn) [Example 1-60]: 123 to 124 °C and less than 0.1 µM.
On to `COc1ccccc1-c1cccc(CNC(=O)Nc2cccc3c2CC(O)CC3)c1` (stereo not drawn) [Example 1-61], for which the melting point was in the range of 129 to 130 °C. The IC50 at human VR1 is less than 0.1 µM.
For `COc1ccc(-c2cccc(CNC(=O)Nc3cccc4c3CC(O)CC4)c2)cc1OC` (stereo not drawn) [Example 1-62], the melting point lay in the range of 223 to 224 °C. Also, the IC50 at human VR1 was less than 0.1 µM.
As for `O=C(NCc1cccc(-c2cccc([N+](=O)[O-])c2)c1)Nc1cccc2c1CC(O)CC2` (stereo not drawn) [Example 1-63], the melting point lay in the range of 191 to 192 °C. For the same compound, the IC50 at human VR1 was less than 0.1 µM.
Compound `O=C(NCc1cccc(-c2ccc(F)cc2F)c1)Nc1cccc2c1CC(O)CC2` (stereo not drawn) [Example 1-64] registered a melting point of 197 to 198 °C. Moreover, on human VR1, the IC50 was less than 0.1 µM.
The compound `O=C(NCc1cccc(-c2ccc(F)c(F)c2)c1)Nc1cccc2c1CC(O)CC2` (stereo not drawn) [Example 1-65] returned a melting point of 188 to 189 °C. In addition, the IC50 at human VR1 was less than 0.1 µM.
The compound `O=C(NCc1cccc(-c2ccccc2F)c1)Nc1cccc2c1CC(O)CC2` (stereo not drawn) [Example 1-66] registered a melting point of 197 to 198 °C. Further, at human VR1, the IC50 was less than 0.1 µM.
In turn, `Cc1cc(C)cc(-c2cccc(CNC(=O)Nc3cccc4c3CC(O)CC4)c2)c1` (stereo not drawn) [Example 1-67] came in with a melting point of 197 to 198 °C. Also, the IC50 on human VR1 was less than 0.1 µM.
